Among the test systems are K-562 leukemia; KM12 colon; M14 melanoma; NCI-H23 lung; OVCAR-4 ovarian; SNB-19 CNS; SNB-75 CNS; SW-620 colon; TK-10 renal.
What all share (assay): inhibition of tumour cell growth, NCI panel, 48 h

Structures are written as SMILES.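 96-well plates; 48 h exposure; 5 concentrations. Endpoints by linear interpolation between flanking doses. Not reached: highest tested concentration assigned. TGI is the concentration that stops growth completely.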 A value given as a limit tells only on which side of the number the result lay.

`COC(=O)c1ccc2n[se]nc2c1`: the TGI in the test on K-562 leukemia, in the test on KM12 colon, in the test on M14 melanoma, in the test with NCI-H23 lung, in the test on OVCAR-4 ovarian and in the test with SNB-19 CNS was greater than 100 µM in each case. Besides, the TGI in the test with SNB-75 CNS, in the test with SW-620 colon and with TK-10 renal was greater than 100 µM each time.

`O=C(N/C(=C\c1cc(Cl)ccc1Cl)c1nc2ccccc2[nH]1)c1ccccc1`: the TGI with K-562 leukemia was 76.6 µM; in the test on KM12 colon, 88.9 µM; with M14 melanoma, 69.7 µM; in the test on NCI-H23 lung, 96.9 µM; in the test with OVCAR-4 ovarian it was greater than 100 µM; in the test with SNB-19 CNS, greater than 100 µM. In addition, the results for the TGI in the test on SW-620 colon and in the test on TK-10 renal were 52.8 µM and greater than 100 µM, respectively.

`COc1cc(C=C2C(=O)OC(C)(C)OC2=O)cc(OC)c1OC`: the TGI with K-562 leukemia, in the test on KM12 colon, in the test on M14 melanoma, in the test on NCI-H23 lung, in the test on OVCAR-4 ovarian and in the test with SNB-19 CNS was greater than 100 µM in each case. Besides, the TGI in the test on SW-620 colon and with TK-10 renal was greater than 100 µM in each case.

Turning to `CC(=O)OC1CC[C@@]2(C)C(CC(OC3OC(CO)C(O)C(O)C3O)[C@]3(C)C2CCC24CC23CC[C@H]4C(C)CC(O)[C@@H](O)C(C)(C)O)C1(C)C` (stereo partly drawn), the TGI was 43.4 µM with K-562 leukemia; 19.7 µM in the test on KM12 colon; 22.6 µM in the test on M14 melanoma; greater than 50 µM in the test on NCI-H23 lung; greater than 50 µM in the test with OVCAR-4 ovarian; 38.3 µM in the test on SNB-19 CNS. For the same molecule, the TGI was 32 µM in the test with SNB-75 CNS, 45.1 µM in the test on SW-620 colon and greater than 50 µM in the test with TK-10 renal.

As for `COC(=O)c1nc(N)[nH]c(=O)c1-c1ccc(Cl)cc1`, the TGI in the test on K-562 leukemia, with KM12 colon, with M14 melanoma, in the test with NCI-H23 lung, with OVCAR-4 ovarian and in the test on SNB-19 CNS was greater than 100 µM throughout. In addition, the TGI in the test with SNB-75 CNS, with SW-620 colon and with TK-10 renal was greater than 100 µM in each case.

As for `Clc1cc(Cl)c2n[se]nc2c1`, the TGI in the test with K-562 leukemia, in the test with KM12 colon, in the test on M14 melanoma, with NCI-H23 lung, in the test on OVCAR-4 ovarian and in the test with SNB-19 CNS was greater than 100 µM throughout. Also, the TGI in the test with SNB-75 CNS, in the test on SW-620 colon and with TK-10 renal was greater than 100 µM in each case.

`COc1ncn(C2C=C(CO)C(O)C2O)c(=O)n1` (stereo not drawn): the TGI with K-562 leukemia, in the test with KM12 colon, in the test on M14 melanoma, with OVCAR-4 ovarian, in the test with SNB-75 CNS and in the test with TK-10 renal was greater than 100 µM throughout.

On to `Cc1cc(C)cc(NC(=O)CCC(=O)C2CCC/C2=N\NC(=O)C(=O)NN)c1` (stereo not drawn), for which the TGI with K-562 leukemia, with KM12 colon, with M14 melanoma, with NCI-H23 lung, in the test with OVCAR-4 ovarian and in the test with SNB-19 CNS was greater than 100 µM in each case. Moreover, the TGI in the test on SNB-75 CNS, in the test with SW-620 colon and with TK-10 renal was greater than 100 µM in each case.

Turning to `O=C(/C=C(\O)C(=O)O)/C=C(\O)c1ccc(Cl)cc1`, the TGI in the test with K-562 leukemia, in the test with KM12 colon, with M14 melanoma, in the test with NCI-H23 lung, with OVCAR-4 ovarian and in the test on SNB-19 CNS was greater than 100 µM throughout. The TGI in the test with SNB-75 CNS, in the test with SW-620 colon and in the test on TK-10 renal was greater than 100 µM throughout.

As for `COc1cc2c3c(c1OC)C1(C=CC(=O)C=C1)CC3N(C(=O)OC(C)(C)C(Cl)(Cl)Cl)CC2` (stereo not drawn), the TGI in the test on K-562 leukemia was found to be 50.2 µM; in the test with KM12 colon, 23.2 µM; in the test with M14 melanoma, 28.8 µM; with NCI-H23 lung it was 32.4 µM; in the test with OVCAR-4 ovarian, 40.3 µM; in the test on SNB-19 CNS, 32.2 µM. For the same molecule, the TGI in the test with SNB-75 CNS is 34.5 µM; with SW-620 colon, 43.1 µM; in the test with TK-10 renal, greater than 100 µM.

As for `COC(=O)CC[C@@H](NC(=O)C(C)NC(=O)COC1C(O)C(COC(=O)CCCCCCCCCCNC(=O)c2ccc([N+](=O)[O-])c3[nH]c4cc(Br)ccc4c(=O)c23)OC(OCc2ccccc2)C1NC(C)=O)C(N)=O` (stereo partly drawn), the TGI in the test on K-562 leukemia, with KM12 colon, with M14 melanoma, with NCI-H23 lung, in the test on OVCAR-4 ovarian and with SNB-19 CNS was greater than 100 µM each time. The TGI with SNB-75 CNS, in the test on SW-620 colon and in the test with TK-10 renal was greater than 100 µM throughout.

As to `NC(N)=Nc1nc2cc(N)ccc2o1`, the TGI in the test with K-562 leukemia, with KM12 colon, in the test on M14 melanoma, in the test with NCI-H23 lung, in the test with OVCAR-4 ovarian and in the test on SNB-19 CNS was greater than 100 µM each time. The TGI in the test with SNB-75 CNS, in the test with SW-620 colon and in the test with TK-10 renal was greater than 100 µM in each case.

With `COC1=C(C(=O)OC(C)(C)C)C23CCCCC2(C(C(=O)OC(C)(C)C)=C(OC)C3C(=O)OC(C)(C)C)C1C(=O)OC(C)(C)C` (stereo not drawn), the TGI with K-562 leukemia, in the test with KM12 colon, in the test on M14 melanoma, in the test with NCI-H23 lung, in the test with OVCAR-4 ovarian and in the test on SNB-19 CNS was greater than 100 µM throughout. Moreover, the TGI in the test with SNB-75 CNS, in the test on SW-620 colon and with TK-10 renal was greater than 100 µM in each case.

As to `O=C1/C=C(/c2ccc(O)cc2)[C@H](O)Cc2ccc(OC3OC(CO)C(O)C(O)C3O)cc2O1` (stereo partly drawn) (tested in a mixture with another compound), the TGI in the test with KM12 colon, in the test with M14 melanoma, in the test on NCI-H23 lung, in the test on OVCAR-4 ovarian, with SNB-19 CNS and with SW-620 colon was greater than 100 µM in each case. Further, the TGI in the test with TK-10 renal is greater than 100 µM.

In the case of `O=c1c2ccccc2oc2nccnc12`, the TGI in the test with K-562 leukemia, in the test with KM12 colon, in the test with M14 melanoma, in the test with NCI-H23 lung, in the test with OVCAR-4 ovarian and with SNB-19 CNS was greater than 100 µM in each case. For the same molecule, the TGI with SNB-75 CNS, in the test on SW-620 colon and in the test on TK-10 renal was greater than 100 µM in each case.

The record behind these values is PubChem BioAssay (NCI).
